Experimental data taken from patent publication US12152017B2, “Ketoamide compound and preparation method, pharmaceutical composition, and use thereof” (Shanghai Institute of Materia Medica, Chinese Academy of …, priority 2018, dated 2024).
Where “and” joins values, the source holds several entries; their conditions need not be identical. Equal values may be shown once. Read-outs that look alike come from different tables or passages of the source.

Key:
MERS-CoV pseudovirus = test: microbe, parasite or virus in culture; format: cell-based; settings: Middle East respiratory syndrome-related coronavirus, Huh-7, read-out: MERS-CoV pseudovirus inhibitory activity IC50
[1] = Pharmacokinetic study in CD-1 mice (gavage, intravenous, intraperitoneal); format: in vivo; settings: 20 mg/kg; for Cmax / Tmax / half-life / AUC(0-inf) / MRT inf / AUC(0-t): male, CD-1, mouse, plasma; for AUC(0-inf): read-out: AUC INF_obs; for MRT inf: read-out: MRT INF_obs
Description: Nine CD-1 mice, male, weighing 18-22 g, were randomly divided into 3 groups with 3 mice in each group. The test compounds were administered by gavage, intravenously and intraperitoneally according to the following schemes.
Before the test, they were fasted for 12 hours and were allowed to drink water freely, and were fed uniformly 2 h after administration.
There were 3 animals at each time point.
The solution for gavage administration was formulated with DMSO/0.5% HPMC (5/95, v/v) into the final concentration. Intravenous and intraperitoneal administration were formulated with DMSO/PEG300/EtOH/NaCl (5/40/5/50, v/v/v). Retention samples of the dosing solution (50 μL of the drug solution was taken and mixed well with 50 μL of DMSO before and after the administration) for testing.
The drug was administered according to the above dosage, the time of administration were recorded, and 20 μL of blood was collected from the mouse femoral plexus at the above set time point and placed in a heparinized test tube and centrifuged immediately at 11000 rpm for 5 min. 10 μL of plasma was immediately and accurately drawn into a centrifuge tube pre-filled with 100 μL of PK-IS solution (prepared with methanol:acetonitrile (1:1, v/v)), mixed well, and frozen to store at −20° C. for testing.

[2] = i.p. (20 mg/Kg per Table 3), individual animal
[3] = ip, i.p. (20 mg/Kg per Table 3), Mean of 3 mice
[4] = ip, i.p. (20 mg/Kg per Table 3), individual animal
[5] = ip, i.p. (20 mg/Kg per Table 3), individual animal, read-out: AUC last
[6] = po, p.o. (gavage 20 mg/Kg per Table 3), Mean of 3 mice
[7] = po, p.o. (gavage 20 mg/Kg per Table 3), Mean of 3 mice, read-out: AUC last (oral exposure)
[8] = po, p.o. (gavage 20 mg/Kg per Table 3), individual animal
[9] = po, p.o. (gavage 20 mg/Kg per Table 3), individual animal, read-out: AUC last
[10] = p.o. (gavage 20 mg/Kg per Table 3), individual animal
[11] = ip, i.p. (20 mg/Kg per Table 3), Mean of 3 mice, read-out: AUC last (exposure for intraperitoneal injection)

**Q.** What does the source list for O=C(NCc1ccccc1)C(=O)[C@H](C[C@@H]1CCNC1=O)NC(=O)[C@H](CC1CCCCC1)NC(=O)c1ccc2ccccc2n1 [Example A42, N—((S)-1-(((S)-4-(benzylamino)-3,4-dione-1-((S)-2-oxopyrrolidine-3-yl)but-2-yl)amino)-3-cyclohexyl-1-oxopropan-2-yl)-quinoline-2-carboxamide]?
**A.** IC50 (MERS-CoV pseudovirus): 3.2 ± 0.6 nM; AUC INF_obs [1, 2]: 10647 ng·h/mL and 11768 ng·h/mL; AUC last [1, 2]: 10576 ng·h/mL and 11340 ng·h/mL; C max [1, 2]: 3959 ng/mL and 5038 ng/mL; MRT INF_obs [1, 2]: 3.41 h and 4.99 h; T1/2 [1, 2]: 3.67 h and 6.20 h; Cmax [1, 3]: 4280 ng/mL; Tmax [1, 3]: 0.25 h; half-life [1, 3]: 5.46 h; AUC(0-inf) [1, 3]: 12000 ng·h/mL; MRT inf [1, 3]: 4.93 h; Cmax [1, 4]: 3840 ng/mL; Tmax [1, 4]: 0.25 h; half-life [1, 4]: 6.52 h; AUC(0-inf) [1, 4]: 13700 ng·h/mL; AUC(0-t) [1, 5]: 13000 ng·h/mL; MRT inf [1, 4]: 6.38 h; Cmax [1, 6]: 858 ng/mL; Tmax [1, 6]: 0.25 h; half-life [1, 6]: 5.81 h; AUC(0-inf) [1, 6]: 750 ng·h/mL; AUC(0-t) [1, 7]: 742 ng·h/mL; MRT inf [1, 6]: 2.3 h; Cmax [1, 8]: 1020 ng/mL; Tmax [1, 8]: 0.25 h; half-life [1, 8]: 4.19 h; AUC(0-inf) [1, 8]: 791 ng·h/mL; AUC(0-t) [1, 9]: 787 ng·h/mL; MRT inf [1, 8]: 1.98 h; AUC INF_obs [1, 10]: 953 ng·h/mL and 506 ng·h/mL; AUC last [1, 10]: 945 ng·h/mL and 494 ng·h/mL; C max [1, 10]: 966 ng/mL and 588 ng/mL; MRT INF_obs [1, 10]: 2.10 h and 2.83 h; T1/2 [1, 10]: 5.52 h and 7.73 h

**Q.** For Cc1cnc(C(=O)N[C@@H](CC2CCCCC2)C(=O)N[C@@H](C[C@@H]2CCCNC2=O)C(=O)C(=O)NCc2ccccc2)o1 [Example A241], which IC50 (MERS-CoV pseudovirus) is on record?
**A.** Its IC50 is 2.5 ± 1.3 nM.

**Q.** What about the “AUC INF_obs” value [1, 2] of the same compound?
**A.** The value was 3524 ng·h/mL and 4121 ng·h/mL.

**Q.** And the AUC last [1, 2]?
**A.** The AUC last was 3514 ng·h/mL and 4100 ng·h/mL.

**Q.** What about the C max [1, 2] of the same compound?
**A.** Its C max is 4206 ng/mL and 4836 ng/mL.

**Q.** What about the “MRT INF_obs” value [1, 2] of the same compound?
**A.** Its value is 1.37 h and 1.50 h.

**Q.** And the T1/2 [1, 2]?
**A.** The T1/2 was 3.59 h and 4.72 h.

**Q.** And the T max [1, 2]?
**A.** The T max was 3 min.

**Q.** What about the Cmax [1, 3] of the same compound?
**A.** Its Cmax is 4660 ng/mL.

**Q.** And the Tmax [1, 3]?
**A.** The Tmax was 0.18 h.

**Q.** What about the half-life [1, 3] of the same compound?
**A.** The half-life was 4.36 h.

**Q.** And the AUC(0-inf) [1, 3]?
**A.** Its AUC(0-inf) is 4180 ng·h/mL.

**Q.** And the AUC(0-t) [1, 11]?
**A.** Its AUC(0-t) is 4160 ng·h/mL.

**Q.** What about the MRT inf [1, 3] of the same compound?
**A.** Its MRT inf is 1.44 h.

**Q.** What about the Cmax [1, 4] of the same compound?
**A.** Its Cmax is 4930 ng/mL.

**Q.** And the half-life [1, 4]?
**A.** The half-life was 4.78 h.

**Q.** And the AUC(0-inf) [1, 4]?
**A.** The AUC(0-inf) was 4900 ng·h/mL.

**Q.** What about the AUC(0-t) [1, 5] of the same compound?
**A.** The AUC(0-t) was 4870 ng·h/mL.

**Q.** What about the MRT inf [1, 4] of the same compound?
**A.** The MRT inf was 1.44 h.

**Q.** What about the Cmax [1, 6] of the same compound?
**A.** The Cmax was 767 ng/mL.

**Q.** And the Tmax [1, 6]?
**A.** Its Tmax is 0.25 h.

**Q.** And the half-life [1, 6]?
**A.** The half-life was 4.22 h.

**Q.** And the AUC(0-inf) [1, 6]?
**A.** Its AUC(0-inf) is 665 ng·h/mL.

**Q.** And the AUC(0-t) [1, 7]?
**A.** The AUC(0-t) was 663 ng·h/mL.

**Q.** What about the MRT inf [1, 6] of the same compound?
**A.** Its MRT inf is 1.82 h.

**Q.** What about the Cmax [1, 8] of the same compound?
**A.** The Cmax was 707 ng/mL.

**Q.** What about the Tmax [1, 8] of the same compound?
**A.** Its Tmax is 0.25 h.

**Q.** What about the half-life [1, 8] of the same compound?
**A.** The half-life was 3.84 h.

**Q.** What about the MRT inf [1, 8] of the same compound?
**A.** Its MRT inf is 2.12 h.

**Q.** And the “AUC INF_obs” value [1, 10]?
**A.** Its value is 469 ng·h/mL and 947 ng·h/mL and 579 ng·h/mL.

**Q.** What about the AUC last [1, 10] of the same compound?
**A.** Its AUC last is 467 ng·h/mL and 945 ng·h/mL and 576 ng·h/mL.

**Q.** What about the C max [1, 10] of the same compound?
**A.** Its C max is 942 ng/mL and 651 ng/mL.

**Q.** And the “MRT INF_obs” value [1, 10]?
**A.** Its value is 1.68 h and 1.64 h.

**Q.** What about the T1/2 [1, 10] of the same compound?
**A.** Its T1/2 is 3.85 h and 4.96 h.

**Q.** Which IC50 (MERS-CoV pseudovirus) does the source give for Cc1cnc(C(=O)N[C@@H](CC2CCCCC2)C(=O)N[C@@H](C[C@@H]2CCNC2=O)C(=O)C(=O)NCc2ccccc2)o1 [Example A242, N—((S)-1-(((S)-4-(benzylamino)-3,4-dione-1-((S)-2-oxopyrrolidine-3-yl)but-2-yl)amino)-3-cyclohexyl-1-oxopropan-2-yl)-5-methyloxazole-2-carboxamide] here?
**A.** The IC50 was 2.2 ± 0.8 nM.

**Q.** What about the “AUC INF_obs” value [1, 2] of the same compound?
**A.** The value was 5808 ng·h/mL and 6750 ng·h/mL.

**Q.** What about the AUC last [1, 2] of the same compound?
**A.** Its AUC last is 5779 ng·h/mL and 6628 ng·h/mL.

**Q.** What about the C max [1, 2] of the same compound?
**A.** Its C max is 4739 ng/mL and 5334 ng/mL.

**Q.** And the “MRT INF_obs” value [1, 2]?
**A.** The value was 1.85 h and 2.45 h.

**Q.** And the T1/2 [1, 2]?
**A.** Its T1/2 is 4.37 h and 6.75 h.

**Q.** What about the Cmax [1, 3] of the same compound?
**A.** The Cmax was 5490 ng/mL.

**Q.** And the Tmax [1, 3]?
**A.** The Tmax was 0.25 h.

**Q.** And the half-life [1, 3]?
**A.** Its half-life is 5.32 h.

**Q.** And the AUC(0-inf) [1, 3]?
**A.** The AUC(0-inf) was 6960 ng·h/mL.

**Q.** And the AUC(0-t) [1, 11]?
**A.** Its AUC(0-t) is 6890 ng·h/mL.

**Q.** And the MRT inf [1, 3]?
**A.** The MRT inf was 2.07 h.

**Q.** And the Cmax [1, 4]?
**A.** The Cmax was 6400 ng/mL.

**Q.** And the Tmax [1, 4]?
**A.** Its Tmax is 0.25 h.

**Q.** And the half-life [1, 4]?
**A.** Its half-life is 4.85 h.

**Q.** And the AUC(0-inf) [1, 4]?
**A.** The AUC(0-inf) was 8320 ng·h/mL.

**Q.** And the AUC(0-t) [1, 5]?
**A.** The AUC(0-t) was 8260 ng·h/mL.

**Q.** And the MRT inf [1, 4]?
**A.** Its MRT inf is 1.92 h.

**Q.** What about the Cmax [1, 6] of the same compound?
**A.** The Cmax was 409 ng/mL.

**Q.** And the Tmax [1, 6]?
**A.** The Tmax was 0.25 h.

**Q.** And the half-life [1, 6]?
**A.** The half-life was 4.51 h.

**Q.** What about the AUC(0-inf) [1, 6] of the same compound?
**A.** Its AUC(0-inf) is 493 ng·h/mL.

**Q.** And the AUC(0-t) [1, 7]?
**A.** Its AUC(0-t) is 488 ng·h/mL.

**Q.** And the MRT inf [1, 6]?
**A.** The MRT inf was 2.56 h.

**Q.** What about the Tmax [1, 8] of the same compound?
**A.** The Tmax was 0.25 h.

**Q.** What about the half-life [1, 8] of the same compound?
**A.** Its half-life is 4 h.

**Q.** And the AUC(0-inf) [1, 8]?
**A.** Its AUC(0-inf) is 436 ng·h/mL.

**Q.** And the AUC(0-t) [1, 9]?
**A.** Its AUC(0-t) is 434 ng·h/mL.

**Q.** What about the MRT inf [1, 8] of the same compound?
**A.** The MRT inf was 2.13 h.

**Q.** And the “AUC INF_obs” value [1, 10]?
**A.** Its value is 413 ng·h/mL and 629 ng·h/mL.

**Q.** And the AUC last [1, 10]?
**A.** The AUC last was 409 ng·h/mL and 622 ng·h/mL.

**Q.** And the C max [1, 10]?
**A.** Its C max is 499 ng/mL and 247 ng/mL and 482 ng/mL.

**Q.** What about the “MRT INF_obs” value [1, 10] of the same compound?
**A.** The value was 2.84 h and 2.71 h.

**Q.** And the T1/2 [1, 10]?
**A.** Its T1/2 is 4.63 h and 4.91 h.
